Measured values from US20220175761A1, “BI-LIGAND DRUG CONJUGATE AND USE THEREOF” (COHERENT BIOPHARMA (SUZHOU), LIMITED, priority 2019, published 2022).
pIC50: −log10 of the molar value. Square brackets hold non-standard residues; d marks the D form. Peptide text beside a SMILES is read from it. * marks the point of attachment. Dolaproine = CO[C@@H]([C@@H]1CCCN1)[C@@H](C)C(=O)O; Dil = CC[C@H](C)[C@H](NC)[C@@H](CC(=O)O)OC; X1 = C[C@@H](N*)[C@@H](O)c1ccccc1; NMeV = CN[C@H](C(=O)O)C(C)C

Assays:
[1] = system: KB, MIA paca-2, HCC1954, CALU-3 and DU145 cell lines (CDX tumor models); assay: Pharmacodynamic study 1 of CB-20BK in CDX models; type: in vivo, BALB/c-nude mice; conditions: tail vein injection
Procedure: CB-20BK lyophilized powder was weighed, dissolved with PBS and prepared into a sample mother solution, and the mother solution was diluted with a physiological saline for injection to a sample solution with a working concentration for later use.
Main cell lines: KB human oral epidermoid carcinoma cells, MIA paca-2 human pancreatic cancer cells, HCC1954 human breast cancer cells, CALU-3 human lung adenocarcinoma cells and DU145 human prostate cancer cells.
Model construction: The cells were resuscitated, cultured, collected, counted, and subcutaneously injected into the right flank of BALB/c-nude mice. When the tumor grew and expanded to 80-160 mm^3, grouping and administration were performed, or rapidly expanded tumor masses were transferred and injected to mice for scale up.
Grouping: When the tumor grew to about 80-160 mm^3 on average, a grouping was performed, and a model control group and different doses of administration groups were set.
Administration: The mice were administrated via tail vein injection.
The weight of mice and the long diameter (a) and short diameter (b) of tumor mass were measured twice a week. The formula for the calculation of tumor volume (TV) is: TV=½×a×b^2.

FOLH1 = FOLH1 (Homo sapiens, UniProt Q04609); assay: BIAcore T200: binding of FOLH1 to compound-FOLR1 complex; parameters: purchased Sino Biologicals (FOLH1); R&D System (FOLR1) 15877-H07H (FOLH1); 5646-FR (FOLR1)
From the text: CM5 chip was conjugated with a ligand: FOLR1 (R&D System, Cat #: 5646-FR)
Analyte: CB-20BK, FA-MMAE and FOLH1 (Sino Biologicals, Cat #: 15877-H07H)
According to BIAcore T200 (GE) operating manual, FOLR1 was conjugated to the CM5 chip; CB-20BK or FA-MMAE was loaded first, and then FOLH1 was loaded; and the binding of FOLH1 to the CB-20BK-FOLR1 complex was detected.

[2] = system: NCI-H226 (human lung cancer cells); assay: Inhibition of cell line proliferation, CCK8; type: cell-based; conditions: NCI-H226, 68-72 hours, CCK8
[3] = system: MDA-MB-468 (human breast cancer cells); assay: Inhibition of cell line proliferation, CCK8; type: cell-based; conditions: MDA-MB-468, 68-72 hours, CCK8

Chain of FOLH1 (Q04609 44-750 limits assumed): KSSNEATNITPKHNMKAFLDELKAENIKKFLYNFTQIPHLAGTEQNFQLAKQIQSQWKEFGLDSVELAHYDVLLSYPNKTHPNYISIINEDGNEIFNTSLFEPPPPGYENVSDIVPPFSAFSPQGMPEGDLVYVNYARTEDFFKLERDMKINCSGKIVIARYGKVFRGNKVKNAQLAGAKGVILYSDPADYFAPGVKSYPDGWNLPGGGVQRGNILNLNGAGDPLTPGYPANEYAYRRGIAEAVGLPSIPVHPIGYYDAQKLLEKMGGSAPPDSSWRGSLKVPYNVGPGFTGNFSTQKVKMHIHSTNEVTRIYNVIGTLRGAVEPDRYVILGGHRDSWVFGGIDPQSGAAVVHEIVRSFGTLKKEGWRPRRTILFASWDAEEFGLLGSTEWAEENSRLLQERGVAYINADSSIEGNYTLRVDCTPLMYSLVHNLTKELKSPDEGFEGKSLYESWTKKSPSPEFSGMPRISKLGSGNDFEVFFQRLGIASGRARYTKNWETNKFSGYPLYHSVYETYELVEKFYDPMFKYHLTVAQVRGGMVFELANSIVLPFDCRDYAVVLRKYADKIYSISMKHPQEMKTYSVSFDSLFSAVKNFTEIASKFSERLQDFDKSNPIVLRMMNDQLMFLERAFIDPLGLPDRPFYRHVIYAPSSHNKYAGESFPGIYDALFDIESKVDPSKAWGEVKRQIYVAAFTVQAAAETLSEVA
Chain of FOLH1 (P15328 25-233 partner limits assumed): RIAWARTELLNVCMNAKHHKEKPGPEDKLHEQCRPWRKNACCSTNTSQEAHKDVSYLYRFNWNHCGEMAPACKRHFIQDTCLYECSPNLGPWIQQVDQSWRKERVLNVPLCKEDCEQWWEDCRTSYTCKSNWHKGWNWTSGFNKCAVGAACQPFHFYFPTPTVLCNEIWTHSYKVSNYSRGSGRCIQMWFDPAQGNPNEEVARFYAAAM

SMILES | inhibitory effect in CDX tumor models (tumor volume) [1] | Binding of compound-FOLR1 complex to FOLH1 solution (FOLH1; FOLH1 concentration 0.0625 μM) | Binding of compound-FOLR1 complex to FOLH1 solution (FOLH1; FOLH1 concentration 0.125 μM) | Binding of compound-FOLR1 complex to FOLH1 solution (FOLH1; FOLH1 concentration 0.25 μM) | Binding of compound-FOLR1 complex to FOLH1 solution (FOLH1; FOLH1 concentration 0.5 μM) | amount of FOLH1 bound to compound-FOLR1 complex (in words) (FOLH1; FOLH1 solution at a high concentration) | pIC50 [2] | pIC50 [3]
CC[C@H](C)[C@@H]([C@@H](CC(=O)N1CCC[C@H]1[C@H](OC)[C@@H](C)C(=O)N[C@H](C)[C@@H](O)c1ccccc1)OC)N(C)C(=O)[C@@H](NC(=O)[C@H](C(C)C)N(C)C(=O)OCc1ccc(NC(=O)C(CCCNC(N)=O)NC(=O)[C@@H](NC(=O)CCCCCN2C(=O)CC(SC[C@H](NC(=O)[C@H](CCCCN)NC(=O)[C@H](CC(=O)O)NC(=O)[C@H](CC(=O)O)NC(=O)Cc3ccc(CNC(=O)NCCCC[C@H](NC(=O)N[C@@H](CCC(=O)O)C(=O)O)C(=O)O)cc3)C(=O)N[C@@H](CCCCNC(=O)CC[C@H](NC(=O)c3ccc(NCc4cnc5[nH]c(N)nc(=O)c5n4)cc3)C(=O)O)C(N)=O)C2=O)C(C)C)cc1)C(C)C (some centres unmarked) [CB-20BK] | good inhibitory effect | −0.9 RU | 4.6 RU | 14.1 RU | 23.9 RU | significantly higher than that bound to an FA-MMAE-FOLR1 complex | – | –
CC[C@H](C)[C@@H]([C@@H](CC(=O)N1CCC[C@H]1[C@H](OC)[C@@H](C)C(=O)N[C@H](C)[C@@H](O)c1ccccc1)OC)N(C)C(=O)[C@@H](NC(=O)[C@@H](NC)C(C)C)C(C)C [MMAE, monomethyl auristatin E] (H-[NMeV]V[Dil][Dolaproine]-X1) | – | – | – | – | – | – | 8.22 | 8.70
